Reference: paper PMC8213057, “Targeting ALK2: An Open Science Approach to Developing Therapeutics for the Treatment of Diffuse Intrinsic Pontine Glioma” (Journal of Medicinal Chemistry, 2020)

Key:
LATS2 = target: T1, LATS2 (Homo sapiens, UniProt Q9NRM7); test: biochemical; settings: read-out: % enzyme activity, 1 μM; Run 1, Run 2
T1 sequence (Q9NRM7 1-1088): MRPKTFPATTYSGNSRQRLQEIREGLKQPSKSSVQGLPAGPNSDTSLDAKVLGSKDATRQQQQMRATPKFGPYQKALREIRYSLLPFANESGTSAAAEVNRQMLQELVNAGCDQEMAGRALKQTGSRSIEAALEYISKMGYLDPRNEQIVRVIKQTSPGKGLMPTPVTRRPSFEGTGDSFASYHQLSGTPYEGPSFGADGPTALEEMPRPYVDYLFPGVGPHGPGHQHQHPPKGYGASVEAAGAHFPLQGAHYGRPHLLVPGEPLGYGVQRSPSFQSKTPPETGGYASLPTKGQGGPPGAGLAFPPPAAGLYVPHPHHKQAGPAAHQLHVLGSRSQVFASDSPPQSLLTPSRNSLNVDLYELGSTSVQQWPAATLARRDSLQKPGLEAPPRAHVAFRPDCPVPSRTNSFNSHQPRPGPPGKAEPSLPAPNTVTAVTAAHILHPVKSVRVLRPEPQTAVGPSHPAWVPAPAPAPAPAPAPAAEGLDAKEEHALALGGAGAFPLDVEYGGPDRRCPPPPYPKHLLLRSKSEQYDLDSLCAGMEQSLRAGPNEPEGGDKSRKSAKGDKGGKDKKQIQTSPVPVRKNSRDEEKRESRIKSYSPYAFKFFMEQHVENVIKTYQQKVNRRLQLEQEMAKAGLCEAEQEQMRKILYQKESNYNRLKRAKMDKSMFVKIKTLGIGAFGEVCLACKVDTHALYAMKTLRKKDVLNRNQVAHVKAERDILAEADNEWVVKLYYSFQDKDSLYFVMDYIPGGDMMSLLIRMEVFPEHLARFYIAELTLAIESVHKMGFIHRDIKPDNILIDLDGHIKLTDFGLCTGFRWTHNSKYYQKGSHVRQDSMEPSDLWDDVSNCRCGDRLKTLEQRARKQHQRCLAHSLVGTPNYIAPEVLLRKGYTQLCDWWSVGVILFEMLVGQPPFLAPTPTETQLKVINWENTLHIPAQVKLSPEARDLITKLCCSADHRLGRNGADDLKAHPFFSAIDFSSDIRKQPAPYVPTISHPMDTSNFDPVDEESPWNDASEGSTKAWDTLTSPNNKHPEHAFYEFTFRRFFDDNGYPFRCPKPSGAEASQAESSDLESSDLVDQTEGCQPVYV

TYRO3/SKY = target: T2, TYRO3/SKY (Homo sapiens, UniProt Q06418); settings: 1 μM; Run 1, Run 2
T2 sequence (Q06418 41-890): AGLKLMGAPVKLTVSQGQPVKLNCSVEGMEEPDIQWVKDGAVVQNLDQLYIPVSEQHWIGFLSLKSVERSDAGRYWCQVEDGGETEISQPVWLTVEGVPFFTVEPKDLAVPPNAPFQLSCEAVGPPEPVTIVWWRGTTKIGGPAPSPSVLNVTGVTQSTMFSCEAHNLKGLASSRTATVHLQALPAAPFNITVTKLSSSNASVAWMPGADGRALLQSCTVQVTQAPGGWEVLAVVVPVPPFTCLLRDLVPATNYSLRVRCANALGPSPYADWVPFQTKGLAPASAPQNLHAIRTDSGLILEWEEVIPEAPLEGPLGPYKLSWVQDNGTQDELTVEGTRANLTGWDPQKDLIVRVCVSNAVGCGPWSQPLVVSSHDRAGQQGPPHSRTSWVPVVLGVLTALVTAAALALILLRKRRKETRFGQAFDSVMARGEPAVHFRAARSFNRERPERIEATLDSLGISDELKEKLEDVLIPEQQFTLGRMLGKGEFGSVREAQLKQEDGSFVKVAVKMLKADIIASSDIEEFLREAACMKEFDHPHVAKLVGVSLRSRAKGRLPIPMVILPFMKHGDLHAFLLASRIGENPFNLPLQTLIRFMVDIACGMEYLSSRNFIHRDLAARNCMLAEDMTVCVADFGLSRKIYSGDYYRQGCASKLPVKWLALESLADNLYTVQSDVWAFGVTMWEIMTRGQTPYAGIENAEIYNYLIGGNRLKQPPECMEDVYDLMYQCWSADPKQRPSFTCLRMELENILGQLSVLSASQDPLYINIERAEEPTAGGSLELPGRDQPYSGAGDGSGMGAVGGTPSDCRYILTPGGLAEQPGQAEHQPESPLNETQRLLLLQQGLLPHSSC

ROS/ROS1 = ROS/ROS1 (Homo sapiens, UniProt P08922); settings: 1 μM; Run 1, Run 2
TRKA = TRKA (Homo sapiens, UniProt P04629); settings: 1 μM; Run 1, Run 2
RSK3 = RSK3 (Homo sapiens, UniProt Q15349); test: biochemical; settings: read-out: % enzyme activity, 1 μM; Run 1, Run 2
STK33 = STK33 (Homo sapiens, UniProt Q9BYT3); test: biochemical; settings: read-out: % enzyme activity, 1 μM; Run 1, Run 2
CDK2/cyclin A = CDK2/cyclin A (Homo sapiens, UniProt P24941); settings: 1 μM; Run 1, Run 2
CAMK1d = CAMK1d (Homo sapiens, UniProt Q8IU85); settings: 1 μM; Run 1, Run 2
CAMK1d, sequence (Q8IU85 whole entry): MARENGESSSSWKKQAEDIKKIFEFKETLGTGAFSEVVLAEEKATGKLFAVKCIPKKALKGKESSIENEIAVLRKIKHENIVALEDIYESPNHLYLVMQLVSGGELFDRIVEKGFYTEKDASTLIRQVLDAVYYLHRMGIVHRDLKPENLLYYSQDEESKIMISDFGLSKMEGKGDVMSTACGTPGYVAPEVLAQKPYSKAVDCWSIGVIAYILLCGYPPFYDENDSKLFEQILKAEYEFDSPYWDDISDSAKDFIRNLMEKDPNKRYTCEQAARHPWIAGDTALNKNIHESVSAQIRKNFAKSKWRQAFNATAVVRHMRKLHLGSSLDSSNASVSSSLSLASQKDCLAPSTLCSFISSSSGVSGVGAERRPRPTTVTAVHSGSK

STK33, sequence (Q9BYT3 whole entry): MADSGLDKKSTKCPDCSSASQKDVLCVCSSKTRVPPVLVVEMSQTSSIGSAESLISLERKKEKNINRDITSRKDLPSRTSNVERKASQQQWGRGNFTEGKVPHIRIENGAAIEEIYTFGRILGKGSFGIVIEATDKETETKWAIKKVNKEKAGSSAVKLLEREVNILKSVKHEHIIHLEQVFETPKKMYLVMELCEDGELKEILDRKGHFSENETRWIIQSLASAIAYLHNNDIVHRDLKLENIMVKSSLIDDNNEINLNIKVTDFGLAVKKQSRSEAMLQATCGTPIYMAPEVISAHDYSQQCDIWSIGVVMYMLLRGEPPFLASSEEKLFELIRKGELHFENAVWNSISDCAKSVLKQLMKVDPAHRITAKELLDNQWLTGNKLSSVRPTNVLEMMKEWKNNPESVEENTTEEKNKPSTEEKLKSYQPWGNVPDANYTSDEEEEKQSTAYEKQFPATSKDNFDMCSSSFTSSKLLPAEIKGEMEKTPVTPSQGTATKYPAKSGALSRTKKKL
ROS/ROS1, sequence (P08922 28-2347): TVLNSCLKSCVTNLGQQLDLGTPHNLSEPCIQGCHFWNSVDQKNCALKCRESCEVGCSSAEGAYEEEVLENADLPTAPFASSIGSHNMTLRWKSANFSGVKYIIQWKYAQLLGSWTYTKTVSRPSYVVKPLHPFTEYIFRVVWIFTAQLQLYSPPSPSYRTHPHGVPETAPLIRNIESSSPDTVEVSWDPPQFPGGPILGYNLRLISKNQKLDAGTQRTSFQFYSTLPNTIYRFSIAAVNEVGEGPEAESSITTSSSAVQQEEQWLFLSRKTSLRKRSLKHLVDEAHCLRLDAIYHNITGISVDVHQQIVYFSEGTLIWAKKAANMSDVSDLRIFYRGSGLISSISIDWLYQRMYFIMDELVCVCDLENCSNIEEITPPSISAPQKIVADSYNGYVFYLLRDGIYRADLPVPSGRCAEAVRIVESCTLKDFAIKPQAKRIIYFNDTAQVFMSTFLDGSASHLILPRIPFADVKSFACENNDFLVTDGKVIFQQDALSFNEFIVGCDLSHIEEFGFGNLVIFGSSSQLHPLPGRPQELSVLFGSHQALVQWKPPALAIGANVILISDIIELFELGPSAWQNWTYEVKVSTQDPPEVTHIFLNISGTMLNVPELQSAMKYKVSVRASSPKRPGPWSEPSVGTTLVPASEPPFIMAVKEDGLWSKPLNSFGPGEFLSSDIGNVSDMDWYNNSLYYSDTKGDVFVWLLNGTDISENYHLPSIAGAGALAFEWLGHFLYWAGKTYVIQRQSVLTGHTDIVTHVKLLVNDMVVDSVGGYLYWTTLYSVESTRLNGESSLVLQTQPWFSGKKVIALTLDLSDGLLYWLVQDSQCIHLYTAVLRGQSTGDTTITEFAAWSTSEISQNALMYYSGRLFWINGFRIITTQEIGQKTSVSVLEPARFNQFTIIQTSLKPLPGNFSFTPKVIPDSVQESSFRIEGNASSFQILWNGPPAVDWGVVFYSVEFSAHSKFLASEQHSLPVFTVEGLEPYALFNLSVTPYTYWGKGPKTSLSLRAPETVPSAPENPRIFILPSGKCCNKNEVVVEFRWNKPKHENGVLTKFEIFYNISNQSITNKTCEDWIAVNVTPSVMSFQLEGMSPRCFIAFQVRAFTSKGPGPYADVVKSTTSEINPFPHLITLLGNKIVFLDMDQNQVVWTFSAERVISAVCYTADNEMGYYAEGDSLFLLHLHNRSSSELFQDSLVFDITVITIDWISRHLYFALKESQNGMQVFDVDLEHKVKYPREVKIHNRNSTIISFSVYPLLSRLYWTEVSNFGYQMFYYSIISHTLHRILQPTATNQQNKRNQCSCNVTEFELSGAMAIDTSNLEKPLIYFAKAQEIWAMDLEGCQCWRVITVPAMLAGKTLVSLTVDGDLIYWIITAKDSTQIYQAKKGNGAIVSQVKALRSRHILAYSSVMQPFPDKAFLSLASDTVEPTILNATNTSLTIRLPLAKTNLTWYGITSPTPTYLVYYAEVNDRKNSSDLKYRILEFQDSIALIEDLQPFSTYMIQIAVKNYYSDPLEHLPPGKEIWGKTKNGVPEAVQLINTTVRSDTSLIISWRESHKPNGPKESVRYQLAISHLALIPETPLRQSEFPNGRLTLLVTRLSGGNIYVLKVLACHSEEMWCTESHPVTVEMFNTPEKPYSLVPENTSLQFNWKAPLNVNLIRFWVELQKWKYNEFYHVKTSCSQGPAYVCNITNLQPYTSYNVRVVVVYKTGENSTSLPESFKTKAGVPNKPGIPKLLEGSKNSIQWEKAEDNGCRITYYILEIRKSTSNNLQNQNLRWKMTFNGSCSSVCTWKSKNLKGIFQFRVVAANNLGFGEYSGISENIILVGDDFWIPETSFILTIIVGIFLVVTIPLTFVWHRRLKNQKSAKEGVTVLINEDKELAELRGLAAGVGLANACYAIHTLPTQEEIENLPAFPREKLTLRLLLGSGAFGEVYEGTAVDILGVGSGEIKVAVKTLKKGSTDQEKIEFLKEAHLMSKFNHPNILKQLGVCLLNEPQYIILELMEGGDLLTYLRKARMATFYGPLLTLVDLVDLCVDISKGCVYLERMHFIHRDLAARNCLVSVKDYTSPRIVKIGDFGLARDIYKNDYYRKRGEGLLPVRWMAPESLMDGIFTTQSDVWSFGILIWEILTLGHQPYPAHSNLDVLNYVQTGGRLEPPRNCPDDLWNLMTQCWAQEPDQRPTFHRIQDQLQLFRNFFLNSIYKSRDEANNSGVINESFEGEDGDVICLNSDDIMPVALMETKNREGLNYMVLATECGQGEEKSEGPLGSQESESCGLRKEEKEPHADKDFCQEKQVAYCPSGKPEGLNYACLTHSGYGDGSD
TRKA, sequence (P04629 33-796): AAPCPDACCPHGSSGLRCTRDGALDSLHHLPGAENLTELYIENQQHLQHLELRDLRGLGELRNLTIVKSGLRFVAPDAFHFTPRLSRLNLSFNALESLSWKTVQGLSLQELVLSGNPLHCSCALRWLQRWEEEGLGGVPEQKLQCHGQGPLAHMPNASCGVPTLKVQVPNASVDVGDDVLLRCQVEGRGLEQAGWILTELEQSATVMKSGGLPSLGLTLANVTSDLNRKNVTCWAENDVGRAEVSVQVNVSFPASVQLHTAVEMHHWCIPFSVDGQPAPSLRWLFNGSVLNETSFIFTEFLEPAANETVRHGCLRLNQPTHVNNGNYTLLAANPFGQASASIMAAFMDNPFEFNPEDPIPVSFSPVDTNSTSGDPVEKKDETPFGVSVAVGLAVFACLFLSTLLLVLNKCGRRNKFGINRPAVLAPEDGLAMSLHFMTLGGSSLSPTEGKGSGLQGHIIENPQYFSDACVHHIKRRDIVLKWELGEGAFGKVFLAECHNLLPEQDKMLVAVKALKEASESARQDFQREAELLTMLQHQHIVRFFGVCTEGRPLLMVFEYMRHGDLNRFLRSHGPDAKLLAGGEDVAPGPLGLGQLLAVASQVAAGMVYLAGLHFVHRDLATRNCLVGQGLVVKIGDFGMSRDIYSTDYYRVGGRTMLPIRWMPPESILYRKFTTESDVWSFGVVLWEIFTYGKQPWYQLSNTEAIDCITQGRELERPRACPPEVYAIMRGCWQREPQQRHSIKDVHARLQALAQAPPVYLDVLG
RSK3, sequence (Q15349 whole entry): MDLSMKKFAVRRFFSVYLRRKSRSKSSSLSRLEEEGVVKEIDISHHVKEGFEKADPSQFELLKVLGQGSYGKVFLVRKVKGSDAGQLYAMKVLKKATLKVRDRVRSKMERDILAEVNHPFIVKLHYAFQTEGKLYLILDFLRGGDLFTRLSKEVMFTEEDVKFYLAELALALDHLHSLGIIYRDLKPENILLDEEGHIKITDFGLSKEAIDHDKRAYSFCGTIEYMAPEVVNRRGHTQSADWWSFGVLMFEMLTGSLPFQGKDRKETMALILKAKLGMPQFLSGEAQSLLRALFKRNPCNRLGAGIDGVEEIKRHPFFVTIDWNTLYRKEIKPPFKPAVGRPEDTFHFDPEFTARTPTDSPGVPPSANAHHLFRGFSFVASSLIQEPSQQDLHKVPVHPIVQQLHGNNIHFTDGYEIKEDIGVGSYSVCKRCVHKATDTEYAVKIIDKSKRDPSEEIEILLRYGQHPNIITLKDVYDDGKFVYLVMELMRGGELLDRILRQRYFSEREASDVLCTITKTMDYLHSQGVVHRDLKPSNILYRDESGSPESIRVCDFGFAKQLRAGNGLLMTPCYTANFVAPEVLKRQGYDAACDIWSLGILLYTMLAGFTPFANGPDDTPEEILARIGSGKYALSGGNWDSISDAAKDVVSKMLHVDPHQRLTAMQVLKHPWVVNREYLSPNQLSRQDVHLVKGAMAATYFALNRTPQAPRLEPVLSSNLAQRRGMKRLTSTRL

Row | Compound | remaining activity at 1 µM (LATS2) [%] | CYP inhibition (CYP2C19) [µM] | % enzyme activity (TYRO3/SKY) [%] | % enzyme activity (ROS/ROS1) [%] | % enzyme activity (TRKA) [%] | remaining activity at 1 µM (RSK3) [%] | remaining activity at 1 µM (STK33) [%] | % enzyme activity (CDK2/cyclin A) [%] | % enzyme activity (CAMK1d) [%]
1 | COc1cc(-c2cncc(-c3ccc(N4CCN(C)CC4)cc3)c2C)cc(F)c1C(N)=O [Compound 26a, 2-Fluoro-6-methoxy-4-(4-methyl-5-(4-(4-methylpiperazin-1-yl)phenyl)pyridin-3-yl)benzamide] | 106 | > 50 | 83.48 | 86.47 | 90.11 | 92.2 | 91 | 97.95 | 98.20
2 | COc1cc(-c2cncc(-c3ccc(N4C[C@@H](C)N(C)[C@@H](C)C4)cc3)c2C)cc(F)c1C(N)=O [Compound 26c, 2-Fluoro-6-methoxy-4-(4-methyl-5-(4-((3R,5S)-3,4,5-trimethylpiperazin-1-yl)phenyl)pyridin-3-yl)benzamide] | 102 | > 50 | 93.66 | 95.54 | 94.00 | 101 | 97.4 | 98.65 | 97.72
